In patent US20250098679A1, “HERBICIDAL PYRIDONE DERIVATIVES” (SYNGENTA CROP PROTECTION AG, priority 2021, published 2025):

Columns and labels:
Type in all cases: in vivo
Settings in all cases: evaluated after 13 days
Setaria faberi (SETFA) [1] = assay: Pre-emergence Test, Setaria faberi (SETFA)
[2] = system: Amaranthus palmeri (AMAPA); assay: Pre-emergence Test, Amaranthus palmeri (AMAPA)
[3] = system: Amaranthus retoflexus (AMARE); assay: Post-emergence Test, Amaranthus retoflexus (AMARE); design: key to percentage damage caused to the plant, AMARE (five-point scale): 5=81-100%, 4=61-80%, 3=41-60%, 2=21-40%, 1=0-20% damage
Method in brief: (§1)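 Scores are percentage plant damage on a 1–5 scale (1=0-20%, 2=21-40%, 3=41-60%, 4=61-80%, 5=81-100%), read 13 days after treatment. Pots received a spray at 1000 g/ha unless otherwise stated, formulated in acetone/water (50:50) containing 0.5% Tween 20.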

[4] = system: Ipomoea hederacea (IPOHE); assay: Post-emergence Test, Ipomoea hederacea (IPOHE); design: key to percentage damage caused to the plant, IPOHE (five-point scale): 5=81-100%, 4=61-80%, 3=41-60%, 2=21-40%, 1=0-20% damage
Method in brief: as §1

[5] = system: Echinochloa crus-galli (ECHCG); assay: Pre-emergence Test, Echinochloa crus-galli (ECHCG)
[6] = system: Ipomoea hederacea (IPOHE); assay: Pre-emergence Test, Ipomoea hederacea (IPOHE)
[7] = system: Echinochloa crus-galli (ECHCG); assay: Post-emergence Test, Echinochloa crus-galli (ECHCG); design: key to percentage damage caused to the plant, ECHCG (five-point scale): 5=81-100%, 4=61-80%, 3=41-60%, 2=21-40%, 1=0-20% damage
Method in brief: as §1

[8] = system: Amaranthus retoflexus (AMARE); assay: Pre-emergence Test, Amaranthus retoflexus (AMARE)
Setaria faberi (SETFA) [9] = assay: Post-emergence Test, Setaria faberi (SETFA); design: key to percentage damage caused to the plant, SETFA (five-point scale): 5=81-100%, 4=61-80%, 3=41-60%, 2=21-40%, 1=0-20% damage
Method in brief: as §1

Zea mays (ZEAMX) [10] = assay: Pre-emergence Test, Zea mays (ZEAMX)
[11] = system: Amaranthus palmeri (AMAPA); assay: Post-emergence Test, Amaranthus palmeri (AMAPA); design: key: 5=81-100%, 4=61-80%, 3=41-60%, 2=21-40%, 1=0-20% damage
Method in brief: as §1

Zea mays (ZEAMX) [12] = assay: Post-emergence Test, Zea mays (ZEAMX); design: key to percentage damage caused to the plant, ZEAMX (five-point scale): 5=81-100%, 4=61-80%, 3=41-60%, 2=21-40%, 1=0-20% damage
Method in brief: as §1

SMILES	Pre-emergence Test SETFA, percentage damage caused to the plant (five-point scale) (Setaria faberi (SETFA) [1]; 1000 g/ha)	Pre-emergence Test AMAPA, percentage damage caused to the plant (five-point scale) ([2]; 1000 g/ha)	percentage damage caused to the plant, AMARE (five-point scale) ([3]; 250 g/Ha)	percentage damage caused to the plant, AMARE (five-point scale) ([3]; 1000 g/ha)	percentage damage caused to the plant, IPOHE (five-point scale) ([4]; 250 g/Ha)	percentage damage caused to the plant, IPOHE (five-point scale) ([4]; 1000 g/ha)	Pre-emergence Test ECHCG, percentage damage caused to the plant (five-point scale) ([5]; 1000 g/ha)	Pre-emergence Test IPOHE, percentage damage caused to the plant (five-point scale) ([6]; 1000 g/ha)	percentage damage caused to the plant, ECHCG (five-point scale) ([7]; 250 g/Ha)	percentage damage caused to the plant, ECHCG (five-point scale) ([7]; 1000 g/ha)	Pre-emergence Test AMARE, percentage damage caused to the plant (five-point scale) ([8]; 1000 g/ha)	percentage damage caused to the plant, SETFA (five-point scale) (Setaria faberi (SETFA) [9]; 250 g/Ha)	percentage damage caused to the plant, SETFA (five-point scale) (Setaria faberi (SETFA) [9]; 1000 g/ha)	Pre-emergence Test ZEAMX, percentage damage caused to the plant (five-point scale) (Zea mays (ZEAMX) [10]; 1000 g/ha)	percentage damage caused to the plant, AMAPA (five-point scale) ([11]; 250 g/Ha)	percentage damage caused to the plant, AMAPA (five-point scale) ([11]; 1000 g/ha)	percentage damage caused to the plant, ZEAMX (five-point scale) (Zea mays (ZEAMX) [12]; 250 g/Ha)	percentage damage caused to the plant, ZEAMX (five-point scale) (Zea mays (ZEAMX) [12]; 1000 g/ha)	Pre-emergence Test SETFA, percentage damage caused to the plant (five-point scale) (Setaria faberi (SETFA) [1]; 250 g/Ha (*))	Pre-emergence Test AMAPA, percentage damage caused to the plant (five-point scale) ([2]; 250 g/Ha (*))	other results
CCn1c(Cn2cc3c(n2)CCCC3)cc(=O)c(C(=O)O)c1-c1ccc(Cl)c(Cl)c1 [Compound 101, 2-(3,4-dichlorophenyl)-1-ethyl-4-oxo-6-(4,5,6,7-tetrahydroindazol-2-ylmethyl)pyridine-3-carboxylic acid]	1 (1=0-20%)	2 (2=21-40%)	0	0	0	3 (3=41-60%)	0	2 (2=21-40%)	1 (1=0-20%)	0	1 (1=0-20%)	0	0	1 (1=0-20%)	0	0	0	0	–	–	–
CCn1c(Cn2ncc3cc(F)ccc32)cc(=O)c(C(=O)O)c1-c1ccc(Cl)c(Cl)c1 [Compound 102, 2-(3,4-dichlorophenyl)-1-ethyl-6-[(5-fluoroindazol-1-yl)methyl]-4-oxo-pyridine-3-carboxylic acid]	1 (1=0-20%)	1 (1=0-20%)	1 (1=0-20%)	4 (4=61-80%)	1 (1=0-20%)	3 (3=41-60%)	1 (1=0-20%)	3 (3=41-60%)	3 (3=41-60%)	3 (3=41-60%)	1 (1=0-20%)	1 (1=0-20%)	2 (2=21-40%)	0	2 (2=21-40%)	4 (4=61-80%)	1 (1=0-20%)	0	–	–	–
CCn1c(Cn2cc(C(F)(F)F)nc2C)cc(=O)c(C(=O)O)c1-c1ccc(Cl)c(Cl)c1 [Compound 103, 2-(3,4-dichlorophenyl)-1-ethyl-6-[[2-methyl-4-(trifluoromethyl)imidazol-1-yl]methyl]-4-oxo-pyridine-3-carboxylic acid]	1 (1=0-20%)	2 (2=21-40%)	–	1 (1=0-20%)	–	0	1 (1=0-20%)	0	–	1 (1=0-20%)	1 (1=0-20%)	–	1 (1=0-20%)	0	–	1 (1=0-20%)	–	1 (1=0-20%)	–	–	–
CCn1c(Cn2nc(Cl)cc2C(F)(F)F)cc(=O)c(C(=O)O)c1-c1ccc(Cl)c(Cl)c1 [Compound 104, 6-[[3-chloro-5-(trifluoromethyl)pyrazol-1-yl]methyl]-2-(3,4-dichlorophenyl)-1-ethyl-4-oxo-pyridine-3-carboxylic acid]	5 (5=81-100%)	1 (1=0-20%)	3 (3=41-60%)	4 (4=61-80%)	4 (4=61-80%)	3 (3=41-60%)	5 (5=81-100%)	4 (4=61-80%)	4 (4=61-80%)	4 (4=61-80%)	1 (1=0-20%)	4 (4=61-80%)	4 (4=61-80%)	5 (5=81-100%)	3 (3=41-60%)	4 (4=61-80%)	4 (4=61-80%)	4 (4=61-80%)	5 (5=81-100%)	1 (1=0-20%)	Pre-emergence Test ECHCG, percentage damage caused to the plant (five-point scale) ([5]; 250 g/Ha (*)): 5 (5=81-100%); Pre-emergence Test IPOHE, percentage damage caused to the plant (five-point scale) ([6]; 250 g/Ha (*)): 1 (1=0-20%); Pre-emergence Test AMARE, percentage damage caused to the plant (five-point scale) ([8]; 250 g/Ha (*)): 1 (1=0-20%); Pre-emergence Test ZEAMX, percentage damage caused to the plant (five-point scale) (Zea mays (ZEAMX) [10]; 250 g/Ha (*)): 2 (2=21-40%)
CCn1c(Cn2nc(C(F)(F)F)nc2C)cc(=O)c(C(=O)O)c1-c1ccc(Cl)c(Cl)c1 [Compound 108, 2-(3,4-dichlorophenyl)-1-ethyl-6-[[5-methyl-3-(trifluoromethyl)-1,2,4-triazol-1-yl]methyl]-4-oxo-pyridine-3-carboxylic acid]	0	0	0	0	0	0	0	0	1 (1=0-20%)	2 (2=21-40%)	0	1 (1=0-20%)	2 (2=21-40%)	0	0	0	0	1 (1=0-20%)	–	–	–
CCn1c(Cn2cc(C(F)F)cn2)cc(=O)c(C(=O)O)c1-c1ccc(Cl)c(Cl)c1 [Compound 109, 2-(3,4-dichlorophenyl)-6-[[4-(difluoromethyl)pyrazol-1-yl]methyl]-1-ethyl-4-oxo-pyridine-3-carboxylic acid]	5 (5=81-100%)	0	0	1 (1=0-20%)	2 (2=21-40%)	3 (3=41-60%)	5 (5=81-100%)	4 (4=61-80%)	3 (3=41-60%)	4 (4=61-80%)	0	1 (1=0-20%)	4 (4=61-80%)	0	0	3 (3=41-60%)	1 (1=0-20%)	3 (3=41-60%)	2 (2=21-40%)	0	Pre-emergence Test ECHCG, percentage damage caused to the plant (five-point scale) ([5]; 250 g/Ha (*)): 3 (3=41-60%); Pre-emergence Test IPOHE, percentage damage caused to the plant (five-point scale) ([6]; 250 g/Ha (*)): 1 (1=0-20%); Pre-emergence Test AMARE, percentage damage caused to the plant (five-point scale) ([8]; 250 g/Ha (*)): 0; Pre-emergence Test ZEAMX, percentage damage caused to the plant (five-point scale) (Zea mays (ZEAMX) [10]; 250 g/Ha (*)): 0
